Experiment [1] has as its system motoneurones in the spinal cord. The experiment is described as follows: Depression of monosynaptic (MS) and polysynaptic (PS) excitation of motoneurones in isolated hemisected spinal cord, elicited by dorsal root stimulation. It is filed as cell-based, rat. As to conditions: for inhibition at 500 µM: test conc. 500 μM; for inhibition at 100 µM: test conc. 100 μM. The source says:
To evaluate actions of substances at amino acid receptors on nerve cells (neurones), the substances may be tested on spinal cord neurones, which have similar characteristics to nerve cells in the brain.
^1 Monosynaptic (MS) and polysynaptic (PS) excitation of motoneurones
in the spinal cord from 4-8 day old rats was elicited by electrical
stimulation of a dorsal root and recorded from the corresponding ventral
root. Figures relate to the depression of the magnitude of the two
components as measured respectively from oscilloscope traces and chart

In experiment [2] the test system is 3-mercaptopropionate-induced convulsions. Nature of the experiment: Anticonvulsant activity against 3-mercaptopropionate-induced convulsions in mice. As to conditions: for Anti-convulsant Activity (mice): relative anticonvulsant potency: mice injected with 3-MP 100 mg/kg, 3-MP and phosphonates subcutaneously, relative to AP7 = 1.0. It is filed as in vivo.
Method: ^2 Relative anticonvulsant potencies of substances in mice injected
with 3mercaptopropionic acid (3MP), 100 mg/kg; 3MP and the phosphonates
Experiment [3] concerns neuronal NMDA receptors. The experiment is described as follows: Relative potency as antagonists of NMDA-induced motoneuronal depolarization in spinal cord of 4-day-old rat. It is filed as cell-based. The note with it: 4-day-old rat spinal cord; bath administration; relative to AP5 = 1.0 (higher = more potent). The source says: (§1) ^1 Relative potencies of substances as antagonists of NMDAinduced
(§2) motoneuronal depolarization and as depressants of spontaneous and dorsal
(§3) rootevoked ventral root synaptic potentials in spinal cord of 4day-old
(§4) rat; bath administration of drugs.
(§5) 1 Relative potencies of substances as antagonists of NMDA-induced motoneuronal depolarization and as depressants of spontaneous and dorsal root-evoked ventral root synaptic potentials in spinal cord of 4-day-old rat; bath administration of drugs.

Experiment [4] concerns ventral root synaptic potentials in spinal cord. Nature of the experiment: Relative potency as depressants of spontaneous and dorsal root-evoked ventral root synaptic potentials in spinal cord of 4-day-old rat. It is filed as cell-based. The note with it: 4-day-old rat spinal cord, bath administration, relative to AP5 = 1.0.
Excerpt: as §1, §2, §3, §4, §5

Experiment [5] relates to N-methyl-D-aspartate (NMDA) receptors. Nature of the experiment: Reversal of NMDA-induced motoneuronal depolarization, isolated 4-8 day old rat spinal cord. It is filed as cell-based. The note with it: Table 2.
Experiment [6] deals with kainate (K) receptors. The experiment is described as follows: Reversal of kainate-induced motoneuronal depolarization, isolated 4-8 day old rat spinal cord. It is filed as cell-based. The note with it: Table 2.
The test system of experiment [7] is quisqualate (Q) receptors. The experiment is described as follows: Reversal of quisqualate-induced motoneuronal depolarization, isolated 4-8 day old rat spinal cord. The note with it: Table 2. It is filed as cell-based.
The mark [8] stands for this setting: monosynaptic component, 4-8 day old rat spinal cord, read-out: Synaptic Excitation Percent depression MS.
[9] abbreviates: polysynaptic component, 4-8 day old rat spinal cord, read-out: Synaptic Excitation Percent depression PS.

Like-named read-outs stand apart in the source and are kept apart here.

`NC(CCCP(=O)(O)O)C(=O)O` (racemic) [AP5, 2-amino-5-phosphonopentanoic acid, reference compound]: the inhibition at 2 µM in experiment [1] (polysynaptic component, test conc. 2 μM, 4-8 day old rat spinal cord, read-out: Synaptic Excitation Percent depression PS) is 27%. The “Anti-convulsant Activity (mice): relative anticonvulsant potency” value in experiment [2] came to 0.1.
In the case of `NC(CCCCCP(=O)(O)O)C(=O)O` (racemic) [AP7, 2-amino-7-phosphonoheptanoic acid, reference compound], in experiment [1] (polysynaptic component, test conc. 3 μM, 4-8 day old rat spinal cord, read-out: Synaptic Excitation Percent depression PS), the inhibition at 3 µM came to 28%. For the same compound, the “Depression of NMDA-induced excitation in rat spinal cord: relative potency (NMDA)” value in experiment [3] came out at 0.75. Moreover, the “Depression of synaptic excitation in rat spinal cord: relative potency (Synaptic)” value in experiment [4] worked out at 0.75.
Regarding `O=C(O)C1CN(CCCP(=O)(O)O)CCN1` (racemic) [CPP, 3-((±)-2-carboxypiperazin-4-yl)propyl-1-phosphonic acid], the “Potency as antagonist of polysynaptic spinal excitation compared with AP5 and AP7” value in experiment [1] (Table 2) is reported as “more potent”. Also, the inhibition at 0.5 µM in experiment [1] (polysynaptic component, test conc. 0.5 μM (printed 0 · 5), 4-8 day old rat spinal cord, read-out: Synaptic Excitation Percent depression PS) stood at 28%. Also, in experiment [5], the “Potency as antagonist of NMDA compared with AP5 and AP7” value was “more potent”. Also, the “Depression of NMDA-induced excitation in rat spinal cord: relative potency (NMDA)” value in experiment [3] was determined as 6. In addition, in experiment [4], the “Depression of synaptic excitation in rat spinal cord: relative potency (Synaptic)” value was 4. Besides, the “Anticonvulsant activity compared with AP7” value in experiment [2] (3-mercaptopropionate-induced convulsions in mice, from Table 3) is listed as “significantly higher anticonvulsant activity than AP7”. For the same compound, in experiment [2], the “Anti-convulsant Activity (mice): relative anticonvulsant potency” value is 2.5-5.0.
With `O=C(O)C1CN(CCCS(=O)(=O)O)CCN1` (racemic) [CPS, 3-(±)-2-carboxypiperazin-4-yl)-propane-1-sulphonic acid], the figures for the inhibition at 500 µM in experiment [1] (setting [8]) and in experiment [1] (setting [9]) were 6% and 32%, respectively.
Take `O=C(O)C1NCCN(C(=O)c2ccc(Br)cc2)C1C(=O)O` (centres unmarked) [BBP, 4-(4-bromobenzoyl)-piperazine-2,3-dicarboxylic acid]: the “Potency as depressant of monosynaptic excitation compared with γDGG” value in experiment [1] (Table 2) was “more potent as a depressant of monosynaptic excitation”. Further, the inhibition at 100 µM was determined as 24% in experiment [1] (setting [8]) and 8% in experiment [1] (setting [9]). Besides, the “Potency as antagonist of kainate-induced depolarizations compared with γDGG” value in experiment [6] is on record as “more potent antagonist”. Also, in experiment [7], the “Potency as antagonist of quisqualate-induced depolarizations compared with γDGG” value is listed as “more potent antagonist”.
`N[C@H](CCC(=O)NCC(=O)O)C(=O)O` [γDGG, γ-D-glutamylglycine, reference compound]: in experiment [1] (monosynaptic component, test conc. 700 μM, 4-8 day old rat spinal cord, read-out: Synaptic Excitation Percent depression MS), the inhibition at 700 µM was 24%.

(Values after US5595983A, “Substituted piperazine 2-carboxylic acids useful in the treatment of central nervous system disorders” (British Technology Group Limited, priority 1984, dated 1997).)
